Measured values reported in the supplement of paper PMC10307832.

Tests used:
Experiment in all cases: relative viability (nuclei count vs DMSO), 5 days (fraction); higher = more cells survive
Ruxolitinib + Dasatinib = compound: N#CC[C@H](C1CCCC1)n1cc(-c2ncnc3[nH]ccc23)cn1 [Ruxolitinib] + Cc1nc(Nc2ncc(C(=O)Nc3c(C)cccc3Cl)s2)cc(N2CCN(CCO)CC2)n1 [Dasatinib] (partner 0.075 µM)
How it was run: (§1)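 Relative viability divides the nuclei count in treated wells by that in vehicle wells. Lung cancer cell lines were seeded in 1536-well plates, dosed by pin tool the next day, and fixed and stained after 5 days in one step with final 0.05% Triton X-100, 1% formaldehyde and 1 ug/ml Hoechst. Dosing was a single drug or a fixed anchor-drug dose plus five library-drug doses (not always all listed) in √10 steps, and values are medians of duplicate plates imaged at 4×.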

Ruxolitinib + Foretinib = compound: N#CC[C@H](C1CCCC1)n1cc(-c2ncnc3[nH]ccc23)cn1 [Ruxolitinib] + COc1cc2c(Oc3ccc(NC(=O)C4(C(=O)Nc5ccc(F)cc5)CC4)cc3F)ccnc2cc1OCCCN1CCOCC1 [Foretinib] (partner 0.25 µM)
How it was run: as §1

Vismodegib + AZD7762 = compound: CS(=O)(=O)c1ccc(C(=O)Nc2ccc(Cl)c(-c3ccccn3)c2)c(Cl)c1 [Vismodegib] + NC(=O)Nc1cc(-c2cccc(F)c2)sc1C(=O)N[C@H]1CCCNC1 [AZD7762] (partner 0.2 µM)
How it was run: as §1

VE-821 + Pemetrexed = compound: CS(=O)(=O)c1ccc(-c2cnc(N)c(C(=O)Nc3ccccc3)n2)cc1 [VE-821] + Nc1nc2[nH]cc(CCc3ccc(C(=O)N[C@@H](CCC(=O)O)C(=O)O)cc3)c2c(=O)[nH]1 [Pemetrexed] (partner 0.2 µM)
How it was run: as §1

| Cell Line | relative viability (Ruxolitinib + Dasatinib; first compound 0.08 µM) | relative viability (Ruxolitinib + Dasatinib; first compound 0.253 µM) | relative viability (Ruxolitinib + Dasatinib; first compound 0.8 µM) | relative viability (Ruxolitinib + Dasatinib; first compound 2.53 µM) | relative viability (Ruxolitinib + Dasatinib; first compound 8 µM) | relative viability (Ruxolitinib + Foretinib; first compound 0.08 µM) | relative viability (Ruxolitinib + Foretinib; first compound 0.253 µM) | relative viability (Ruxolitinib + Foretinib; first compound 0.8 µM) | relative viability (Ruxolitinib + Foretinib; first compound 2.53 µM) | relative viability (Ruxolitinib + Foretinib; first compound 8 µM) | relative viability (Vismodegib + AZD7762; first compound 0.08 µM) | relative viability (Vismodegib + AZD7762; first compound 0.253 µM) | relative viability (Vismodegib + AZD7762; first compound 0.8 µM) | relative viability (Vismodegib + AZD7762; first compound 2.53 µM) | relative viability (Vismodegib + AZD7762; first compound 8 µM) | relative viability (VE-821 + Pemetrexed; first compound 0.08 µM) | relative viability (VE-821 + Pemetrexed; first compound 0.253 µM) | relative viability (VE-821 + Pemetrexed; first compound 0.8 µM) | relative viability (VE-821 + Pemetrexed; first compound 2.53 µM) | relative viability (VE-821 + Pemetrexed; first compound 8 µM) |
| --- | --- | --- | --- | --- | --- | --- | --- | --- | --- | --- | --- | --- | --- | --- | --- | --- | --- | --- | --- | --- |
| NCI-H1915 | 0.33 | 0.305 | 0.319 | 0.217 | 0.204 | 1.1 | 1.11 | 1.17 | 0.947 | 0.982 | 0.724 | 0.667 | 0.714 | 0.716 | 0.749 | 0.499 | 0.432 | 0.344 | 0.311 | 0.23 |
| NCI-H358 | 0.189 | 0.131 | 0.175 | 0.135 | 0.164 | 0.531 | 0.692 | 0.638 | 0.619 | 0.558 | 0.529 | 0.57 | 0.664 | 0.477 | 0.611 | 0.177 | 0.199 | 0.177 | 0.166 | 0.122 |
| NCI-H23 | 0.536 | 0.679 | 0.8 | 0.597 | 0.517 | 1.07 | 0.969 | 1 | 0.813 | 0.709 | 0.264 | 0.34 | 0.276 | 0.23 | 0.232 | 0.919 | 0.838 | 0.55 | 0.463 | 0.272 |
| EMC-BAC-2 | 0.321 | 0.283 | 0.308 | 0.275 | 0.219 | 1.06 | 0.951 | 1.03 | 0.819 | 0.824 | 1.16 | 1.1 | 1.06 | 1.07 | 1.08 | 0.45 | 0.391 | 0.427 | 0.371 | 0.308 |
| NCI-H460 | 0.527 | 0.377 | 0.56 | 0.388 | 0.352 | 1.02 | 0.999 | 1.1 | 0.917 | 0.843 | 0.583 | 0.56 | 0.576 | 0.535 | 0.724 | 0.0644 | 0.0622 | 0.0609 | 0.056 | 0.0393 |
| 201T | 0.571 | 0.593 | 0.67 | 0.558 | 0.558 | 1.11 |  | 1.43 | 1.1 | 1.26 | 0.624 | 0.623 | 0.696 | 0.622 | 0.581 | 0.333 | 0.303 | 0.324 | 0.293 | 0.231 |
| NCI-H1993 | 0.532 | 0.523 | 0.579 | 0.488 | 0.583 | 0.752 | 0.698 | 0.821 | 0.857 | 0.817 | 0.751 | 0.912 | 0.84 | 0.768 | 0.712 | 0.6 | 0.596 | 0.35 | 0.638 | 0.601 |
| RERF-LC-KJ | 0.886 | 0.742 | 0.942 | 0.737 | 0.635 | 0.862 | 0.95 | 0.914 | 0.921 | 0.927 | 1.09 | 0.881 | 0.959 | 0.974 | 0.967 | 0.495 | 0.504 | 0.46 | 0.457 | 0.376 |
| NCI-H1755 | 0.473 | 0.394 | 0.472 | 0.341 | 0.213 | 0.946 | 0.892 | 0.91 | 0.852 | 0.755 | 0.453 | 0.568 | 0.515 | 0.449 | 0.41 | 0.464 | 0.655 | 0.431 | 0.361 | 0.247 |
| NCI-H1666 | 0.869 | 0.757 | 0.838 | 0.76 | 0.528 | 0.844 | 0.93 | 1.01 | 0.856 | 0.892 | 0.878 | 0.772 | 0.882 | 0.751 | 0.827 | 0.941 | 0.841 | 0.779 | 0.558 | 0.571 |
| NCI-H2085 | 0.278 | 0.268 | 0.282 | 0.293 | 0.299 | 1.03 | 0.984 | 1.13 | 0.797 | 0.732 | 0.972 | 0.972 | 1.11 | 0.997 | 0.914 | 0.936 | 0.848 | 0.61 |  | 0.612 |
| BEN | 0.319 | 0.311 | 0.377 | 0.292 | 0.335 | 0.773 | 0.634 | 0.729 | 0.62 | 0.612 | 0.792 | 0.68 | 0.77 | 0.684 | 0.701 | 0.839 | 0.678 | 0.719 | 0.799 | 0.581 |
| NCI-H1395 | 0.387 | 0.374 | 0.42 | 0.434 | 0.361 | 1.07 | 0.919 | 1.03 | 0.866 | 0.968 | 0.42 | 0.397 | 0.412 | 0.455 | 0.41 | 0.792 | 0.789 | 0.827 | 0.745 | 0.486 |
| LCLC-97TM1 | 0.912 | 0.731 | 0.712 | 0.62 | 0.623 | 0.848 | 0.753 | 0.826 | 0.834 | 0.889 | 0.292 | 0.262 | 0.327 | 0.297 | 0.286 | 0.191 | 0.186 | 0.164 | 0.189 | 0.125 |
| HCC-827 | 0.133 | 0.3 | 0.346 | 0.231 | 0.199 |  | 0.764 | 0.755 | 0.918 | 0.811 | 0.278 | 0.183 | 0.258 | 0.168 | 0.169 | 0.248 | 0.306 | 0.251 | 0.23 | 0.213 |
| NCI-H596 | 0.581 | 0.654 | 0.585 | 0.575 | 0.496 | 0.907 | 0.848 | 0.888 | 0.947 | 0.804 | 1.07 | 1.04 | 0.954 | 1.11 | 1.08 | 0.511 | 0.48 | 0.485 | 0.454 | 0.374 |
| NCI-H1792 | 0.664 | 0.664 | 0.675 | 0.541 | 0.466 |  |  |  |  |  | 0.682 | 0.679 | 0.677 | 0.724 | 0.729 | 1.19 | 0.59 | 0.865 | 0.996 | 0.568 |
